Structures are written as SMILES.

The experiment concerns recombinant NL-Rluc virus. The experiment can be described thus: Inhibition of HIV replication (NL-RLuc virus in MT-2 cells, luciferase readout). The conditions noted are these: Human immunodeficiency virus 1, MT2, 120 h, 5 days of incubation, 10% FBS. Type of experiment: cell-based.
Broadly, the EC50 is the midpoint of the concentration-response curve. Turning to `Cc1ccc2c(c1)-c1cccc(c1)-c1cc3nc(C)c([C@H](OC(C)(C)C)C(=O)O)c(n3n1)N1CCC(C)(CC1)OCCC[C@@H](C)O2` [Example 60, (2S)-2-(tert-Butoxy)-2-[(22R)-4,17,22,2,7-tetramethyl-21,26-dioxa-1,5,7,8-tetraazahexacyclo[25.2.2.1^6,^9.1^10,^14.0^2,^7.0^15,^20]tritriaconta-2,4,6(33),8,10(32),11,13,15(20),16,18-decaen-3-yl]acetic acid], the EC50 amounted to 84 nM.
As for `Cc1ccc2c(c1)-c1cccc(c1)-c1cc3nc(C)c([C@H](OC(C)(C)C)C(=O)O)c(n3n1)N1CCC(C)(CC1)OCCC[C@H](C)O2` [Example 61, (2S)-2-(tert-Butoxy)-2-[(22S)-4,17,22,27-tetramethyl-21,26-dioxa-1,5,7,8-tetraazahexacyclo[25.2.2.1^6,^9.1^10,^14.0^2,^7.0^15,^20]tritriaconta-2,4,6(33),8,10(32),11,13,15(20),16,18-decaen-3-yl]acetic acid], the figure is 10 nM; as for `Cc1nc2cc3nn2c(c1[C@H](OC(C)(C)C)C(=O)O)N1CCC(C)(CC1)OCC=CCOc1ccc(F)cc1-c1cccc-3c1` [Example 62], 7 nM.
Consider `Cc1nc2cc3nn2c(c1[C@H](OC(C)(C)C)C(=O)O)N1CCC(C)(CC1)OCCCCOc1ccc(F)cc1-c1cccc-3c1` [Example 63, (2S)-2-(tert-Butoxy)-2-{17-fluoro-4,27-dimethyl-21,26-dioxa-1,5,7,8-tetraazahexacyclo[25.2.2.1^6,^9.1^10,^14.0^2,^7.0^15,^20]tritriaconta-2,4,6(33),8,10(32),11,13,15(20),16,18-decaen-3-yl}acetic acid], for which the EC50 amounted to 7 nM.
Regarding `Cc1ccc2c(c1)-c1cccc(c1)-c1cc3nc(C)c([C@H](OC(C)(C)C)C(=O)O)c(n3n1)N1CCC(C)(CC1)OCC=CCC[C@H](C)O2` [Example 64, (2S)-2-(tert-Butoxy)-2-[(22S)-4,17,22,29-tetramethyl-21,28-dioxa-1,5,7,8-tetraazahexacyclo[27.2.2.1^6,^9.1^10,^14.0^2,^7.0^15,^20]pentatriaconta-2,4,6(35),8,10(34), 11, 13, 15(20),16,18,25-undecaen-3-yl]acetic acid], the EC50 was 26 nM.
With `Cc1cc2c(cc1Cl)O[C@@H](C)CC=CCOC1(C)CCN(CC1)c1c([C@H](OC(C)(C)C)C(=O)O)c(C)nc3cc(nn13)-c1cccc-2c1` [Example 66, (2S)-2-(tert-Butoxy)-2-[(22S)-18-chloro-4,17,22,28-tetramethyl-21,27-dioxa-1,5,7,8-tetraazahexacyclo[26.2.2.1^6,^9.1^10,^14.0^2,^7.0^15,^20]tetratriaconta-2,4,6(34),8,10(33), 11, 13, 15(20),16,18,24-undecaen-3-yl]acetic acid], the EC50 came to 43 nM.
Turning to `Cc1cc2c(cc1Cl)O[C@@H](C)CCCCOC1(C)CCN(CC1)c1c([C@H](OC(C)(C)C)C(=O)O)c(C)nc3cc(nn13)-c1cccc-2c1` [Example 67, (2S)-2-(tert-butoxy)-2-[(22S)-18-chloro-4,17,22,28-tetramethyl-21,27-dioxa-1,5,7,8-tetraazahexacyclo[26.2.2.1^6,^9.1^10,^14.0^2,^7.0^15,^20]tetratriaconta-2,4,6(34),8,10(33), 11, 13, 15 (20),16,18-decaen-3-yl]acetic acid], the EC50 was determined as 109 nM.
As for `Cc1ccc2c(c1F)-c1cccc(c1)-c1cc3nc(C)c([C@H](OC(C)(C)C)C(=O)O)c(n3n1)N1CCC(C)(CC1)OC/C=C/C[C@H](C)O2` [Example 68, (2S)-2-(tert-Butoxy)-2-[(22S,^24E)-16-fluoro-4,17,22,28-tetramethyl-21,27-dioxa-1,5,7,8-tetraazahexacyclo[26.2.2.1^6,^9.1^10,^14. 0^2,^7.0^15,^20]tetratriaconta-2,4,6(34),8,10(33), 11, 13, 15 (20), 16,18,24-undecaen-3-yl]acetic acid], the figure is 9 nM; as for `Cc1ccc2c(c1F)-c1cccc(c1)-c1cc3nc(C)c([C@H](OC(C)(C)C)C(=O)O)c(n3n1)N1CCC(C)(CC1)OC/C=C\C[C@H](C)O2` [Example 69, (2S)-2-(tert-Butoxy)-2-[(22S,24Z)-16-fluoro-4,17,22,28-tetramethyl-21,27-dioxa-1,5,7,8-tetraazahexacyclo[26.2.2.1^6,^9.1^10,^14.0^2,^7.0^15,^20]tetratriaconta-2,4,6(34),8,10(33), 11, 13, 15 (20),16,18,24-undecaen-3-yl]acetic acid], 21 nM; as for `Cc1ccc2c(c1F)-c1cccc(c1)-c1cc3nc(C)c([C@H](OC(C)(C)C)C(=O)O)c(n3n1)N1CCC(C)(CC1)OCCCC[C@H](C)O2` [Example 70, (2S)-2-(tert-Butoxy)-2-[(22S)-16-fluoro-4,17,22,28-tetramethyl-21,27-dioxa-1,5,7,8-tetraazahexacyclo[26.2.2.1^6,^9.1^10,^14.0^2,^7.0^15,^20]tetratriaconta-2,4, 6(34), 8, 10(33), 11, 13, 15(20),16,18-decaen-3-yl]acetic acid], 19 nM.
In the case of `Cc1nc2cc3nn2c(c1[C@H](OC(C)(C)C)C(=O)O)N1CCC(C)(CC1)OCC=CC[C@H](C)Oc1ccc(C(N)=O)cc1-c1cccc-3c1` [Example 72, (2S)-2-(tert-Butoxy)-2-[(22S)-17-carbamoyl-4,22,27-trimethyl-21,26-dioxa-1,5,7,8-tetraazahexacyclo[25.2.2.1^6,^9.1^10,^14.0^2,^7.0^15,^20]tritriaconta-2,4, 6(33), 8, 10(32), 11, 13, 15(20),16,18,23-undecaen-3-yl]acetic acid], the EC50 is 15 nM.
Take `Cc1nc2cc3nn2c(c1[C@H](OC(C)(C)C)C(=O)O)N1CCC(C)(CC1)OCCCC[C@H](C)Oc1ccc(C#N)cc1-c1cccc-3c1` [Example 73, (2S)-2-(tert-Butoxy)-2-[(22S)-17-cyano-4,22,28-trimethyl-21,27-dioxa-1,5,7,8-tetraazahexacyclo[26.2.2.1^6,^9.1^10,^14.0^2,^7.0^15,^20]tetratriaconta-2,4,6(34),8,10(33), 11, 13, 15(20),16,18-decaen-3-yl]acetic acid]: the EC50 came out at 6 nM.
As for `Cc1ccc2c(c1)O[C@@H](C)CCCCOC1(C)CCN(CC1)c1c([C@H](OC(C)(C)C)C(=O)O)c(C)nc3cc(nn13)-c1cccc-2c1` [Example 74, (2S)-2-(tert-Butoxy)-2-[(22S)-4,18,22,28-tetramethyl-21,27-dioxa-1,5,7,8-tetraazahexacyclo[26.2.2.1^6,^9.1^10,^14.0^2,^7.0^15,^20]tetratriaconta-2,4,6(34),8,10(33),11,13,15(20),16,18-decaen-3-yl]acetic acid], the EC50 came out at 36 nM.
`Cc1cc2c(cc1C)-c1cccc(c1)-c1cc3nc(C)c([C@H](OC(C)(C)C)C(=O)O)c(n3n1)N1CCC(C)(CC1)OCC=CC[C@H](C)O2` [Example 75, (2S)-2-(tert-Butoxy)-2-[(22S)-4,17,18,22,28-pentamethyl-21,27-dioxa-1,5,7,8-tetraazahexacyclo[26.2.2.1^6,^9.1^10,^14.0^2,^7.0^15,^20]tetratriaconta-2,4,6(34),8,10(33), 11, 13, 15 (20),16,18,24-undecaen-3-yl]acetic acid]: the EC50 is 34 nM.

Values taken from US8906929B2, “Inhibitors of human immunodeficiency virus replication” (priority 2012, dated 2014).
